These results are taken from ChEMBL document CHEMBL4311992, “Discovery of 3-(((9H-purin-6-yl)amino)methyl)-4,6-dimethylpyridin-2(1H)-one derivatives as novel tubulin polymerization inhibitors for treatment of cancer” (Eur J Med Chem, 2019).

The test system of data set [1] is SW-620. The experiment in a line: Induction of apoptosis in human SW620 cells assessed as early apoptotic cells at 100 nM measured after 48 hrs by Annexin V-FITC/propidium iodide staining-based flow cytometry (reference value: 0.773%). It is filed as functional. (A flow cytometer gives signals particle by particle.)
Data set [2] deals with Serine/threonine-protein kinase WNK3 (Homo sapiens) (UniProt Q9BYP7). The experiment in a line: Inhibition of human WNK3 (1 to 434 residues) using myelin basic protein as substrate measured after 40 mins in presence of [gamma33P]ATP by scintillation counting method. Set-up: scale not given: the % may be the effect or the level left.
Chain of Serine/threonine-protein kinase WNK3 (Homo sapiens) (Q9BYP7 whole entry, the tested form may be a part): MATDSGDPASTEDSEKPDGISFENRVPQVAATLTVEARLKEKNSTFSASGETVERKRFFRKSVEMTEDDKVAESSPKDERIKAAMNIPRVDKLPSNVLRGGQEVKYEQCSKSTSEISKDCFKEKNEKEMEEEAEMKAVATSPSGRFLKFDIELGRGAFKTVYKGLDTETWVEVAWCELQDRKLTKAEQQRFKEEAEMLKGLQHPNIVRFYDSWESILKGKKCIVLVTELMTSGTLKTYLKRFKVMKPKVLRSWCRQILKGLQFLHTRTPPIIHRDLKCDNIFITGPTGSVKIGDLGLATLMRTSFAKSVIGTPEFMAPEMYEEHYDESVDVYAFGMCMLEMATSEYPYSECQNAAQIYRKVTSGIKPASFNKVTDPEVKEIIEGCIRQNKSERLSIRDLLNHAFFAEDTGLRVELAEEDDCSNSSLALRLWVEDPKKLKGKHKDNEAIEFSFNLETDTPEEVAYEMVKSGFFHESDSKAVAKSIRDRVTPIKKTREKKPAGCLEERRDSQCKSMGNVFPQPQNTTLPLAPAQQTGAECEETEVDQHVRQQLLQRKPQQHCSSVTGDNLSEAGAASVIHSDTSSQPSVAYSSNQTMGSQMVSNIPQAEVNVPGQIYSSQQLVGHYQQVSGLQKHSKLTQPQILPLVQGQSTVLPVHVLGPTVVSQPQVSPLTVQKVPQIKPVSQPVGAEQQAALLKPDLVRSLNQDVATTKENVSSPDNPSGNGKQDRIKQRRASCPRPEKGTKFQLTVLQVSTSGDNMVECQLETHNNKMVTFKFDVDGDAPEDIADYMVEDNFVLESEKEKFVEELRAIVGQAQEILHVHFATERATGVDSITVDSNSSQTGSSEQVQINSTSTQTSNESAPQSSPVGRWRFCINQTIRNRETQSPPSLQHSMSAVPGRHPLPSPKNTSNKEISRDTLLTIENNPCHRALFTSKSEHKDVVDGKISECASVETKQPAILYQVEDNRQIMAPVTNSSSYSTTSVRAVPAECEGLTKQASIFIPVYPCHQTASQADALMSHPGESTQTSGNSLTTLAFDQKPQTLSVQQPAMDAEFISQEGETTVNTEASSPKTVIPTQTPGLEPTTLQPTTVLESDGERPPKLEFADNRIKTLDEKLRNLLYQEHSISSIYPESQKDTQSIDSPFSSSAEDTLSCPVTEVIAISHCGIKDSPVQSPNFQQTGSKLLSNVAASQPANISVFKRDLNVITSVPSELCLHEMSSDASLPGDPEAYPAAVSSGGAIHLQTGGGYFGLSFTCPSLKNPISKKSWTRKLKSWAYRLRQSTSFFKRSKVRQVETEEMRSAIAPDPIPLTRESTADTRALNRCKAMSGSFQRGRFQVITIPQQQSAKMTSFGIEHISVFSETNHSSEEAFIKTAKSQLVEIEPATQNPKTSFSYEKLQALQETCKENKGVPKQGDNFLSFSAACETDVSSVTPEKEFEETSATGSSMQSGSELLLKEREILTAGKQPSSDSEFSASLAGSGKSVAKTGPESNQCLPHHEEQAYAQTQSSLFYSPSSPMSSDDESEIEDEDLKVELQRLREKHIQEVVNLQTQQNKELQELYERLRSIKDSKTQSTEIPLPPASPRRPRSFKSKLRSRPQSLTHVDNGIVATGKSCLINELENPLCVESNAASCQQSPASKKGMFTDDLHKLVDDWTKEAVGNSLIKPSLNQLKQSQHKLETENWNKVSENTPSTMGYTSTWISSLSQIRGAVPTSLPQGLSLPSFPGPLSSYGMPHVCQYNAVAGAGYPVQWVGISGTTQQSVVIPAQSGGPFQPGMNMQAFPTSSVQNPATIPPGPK
Data set [3] deals with Serine/threonine-protein kinase WNK1 (Homo sapiens) (UniProt Q9H4A3). The experiment in a line: Inhibition of human WNK1 (1 to 491 residues) using myelin basic protein as substrate measured after 120 mins in presence of [gamma33P]ATP by scintillation counting method. On the set-up: scale not given: the % may be the effect or the level left.
Data set [4] has as its target Protein kinase C beta type (Homo sapiens) (UniProt P05771). The experiment in a line: Inhibition of recombinant human PKCbeta2 (2 to end residues) assessed as residual activity at 10 uM using histone H1 as substrate measured after 40 mins in presence of [gamma33P]ATP by scintillation counting method.
Data set [5] can be described thus: Toxicity in nude BALB/c mouse assessed as change in ALT level at 40 to 80 mg/kg, po once daily for 4 weeks measured post-last dose. It is filed as organism-based. The settings on record: in vivo, 672 h.
For data set [6], the target named is Serine/threonine-protein kinase pim-2 (Homo sapiens) (UniProt Q9P1W9). The experiment in a line: Inhibition of recombinant human Pim2 (2 to end residues) assessed as residual activity at 10 uM using RSRHSSYPAGT as substrate measured after 40 mins in presence of [gamma33P]ATP by scintillation counting method.
Chain of Serine/threonine-protein kinase pim-2 (Homo sapiens) (Q9P1W9 whole entry, looked up): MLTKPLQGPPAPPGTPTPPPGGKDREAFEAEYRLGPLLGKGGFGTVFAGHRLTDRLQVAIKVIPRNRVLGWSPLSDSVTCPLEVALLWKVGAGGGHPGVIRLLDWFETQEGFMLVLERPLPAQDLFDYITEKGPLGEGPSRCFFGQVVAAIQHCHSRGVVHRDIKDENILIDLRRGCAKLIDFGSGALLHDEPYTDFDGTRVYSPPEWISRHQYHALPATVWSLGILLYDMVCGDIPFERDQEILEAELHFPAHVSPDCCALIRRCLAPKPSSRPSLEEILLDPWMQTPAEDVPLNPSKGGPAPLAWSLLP
For data set [7], the system named is SW-620. The experiment in a line: Induction of apoptosis in human SW620 cells assessed as necrotic cells at 25 nM measured after 48 hrs by Annexin V-FITC/propidium iodide staining-based flow cytometry (reference value: 2.71%). It is filed as functional.
The subject of data set [8] is SNF-related serine/threonine-protein kinase (Homo sapiens), Q9NRH2 [UNDEFINED MUTATION]. The experiment in a line: Inhibition of human SNRK E97G/P116A mutant (65 to 409 residues) using KKLRRTLSFAEPG as substrate measured after 40 mins in presence of [gamma33P]ATP by scintillation counting method. On the set-up: scale not given: the % may be the effect or the level left.

Data set [9] concerns the target PI3K p110 delta/p85 alpha (Mus musculus) (UniProt P26450+O35904). The experiment in a line: Inhibition of recombinant full-length mouse PI3K p110delta/p85alpha assessed as residual activity at 10 uM using phosphatidylinositol-4, 5-bisphosphate as substrate measured after 40 mins by HTRF assay. It is filed as protein-complex assay. On the technique in general: In TR-FRET formats the signal depends on donor and acceptor labels being close together.

Data set [10] addresses Dual specificity protein kinase CLK4 (Homo sapiens) (UniProt Q9HAZ1). The experiment in a line: Inhibition of recombinant human CLK4 (128 to end residues) assessed as residual activity at 10 uM using YRRAAVPPSPSLSRHSSPHQS(p)EDEEE as substrate measured after 40 mins in presence of [gamma33P]ATP by scintillation counting method.
Data set [11] has as its target Myotonin-protein kinase (Homo sapiens) (UniProt Q09013). The experiment in a line: Inhibition of recombinant human DMPK (1 to 549 residues) assessed as residual activity at 10 uM using KKSRGDYMTMQIG as substrate measured after 40 mins in presence of [gamma33P]ATP by scintillation counting method.
In another data set the test system is HT-29. The experiment in a line: Antiproliferative activity against human HT-29 cells assessed as reduction in cell viability after 72 hrs by MTT assay. It is filed as functional, cell-based. The settings on record: HT-29, 72 h.
Data set [12] has as its target Serine/threonine-protein kinase pim-1 (Homo sapiens) (UniProt P11309). The experiment in a line: Inhibition of recombinant full-length human Pim1 assessed as residual activity at 10 uM using KKRNRTLTV as substrate measured after 40 mins in presence of [gamma33P]ATP by scintillation counting method.
For data set [13], the target named is Dual specificity mitogen-activated protein kinase kinase 6 (Homo sapiens) (UniProt P52564). The experiment in a line: Inhibition of recombinant human MKK6 (4 to end residues) assessed as residual activity at 10 uM using unactive SAPK2a as substrate measured after 40 mins in presence of [gamma33P]ATP by scintillation counting method.
For data set [14], the target named is Wee1-like protein kinase (Homo sapiens) (UniProt P30291). The experiment in a line: Inhibition of human Wee1 (214 to end residues) using LSNLYHQGKFLQTFCGSPLYRRR as substrate measured after 40 mins in presence of [gamma33P]ATP by scintillation counting method. On the set-up: scale not given: the % may be the effect or the level left.
Chain of Wee1-like protein kinase (Homo sapiens) (P30291 whole entry, looked up): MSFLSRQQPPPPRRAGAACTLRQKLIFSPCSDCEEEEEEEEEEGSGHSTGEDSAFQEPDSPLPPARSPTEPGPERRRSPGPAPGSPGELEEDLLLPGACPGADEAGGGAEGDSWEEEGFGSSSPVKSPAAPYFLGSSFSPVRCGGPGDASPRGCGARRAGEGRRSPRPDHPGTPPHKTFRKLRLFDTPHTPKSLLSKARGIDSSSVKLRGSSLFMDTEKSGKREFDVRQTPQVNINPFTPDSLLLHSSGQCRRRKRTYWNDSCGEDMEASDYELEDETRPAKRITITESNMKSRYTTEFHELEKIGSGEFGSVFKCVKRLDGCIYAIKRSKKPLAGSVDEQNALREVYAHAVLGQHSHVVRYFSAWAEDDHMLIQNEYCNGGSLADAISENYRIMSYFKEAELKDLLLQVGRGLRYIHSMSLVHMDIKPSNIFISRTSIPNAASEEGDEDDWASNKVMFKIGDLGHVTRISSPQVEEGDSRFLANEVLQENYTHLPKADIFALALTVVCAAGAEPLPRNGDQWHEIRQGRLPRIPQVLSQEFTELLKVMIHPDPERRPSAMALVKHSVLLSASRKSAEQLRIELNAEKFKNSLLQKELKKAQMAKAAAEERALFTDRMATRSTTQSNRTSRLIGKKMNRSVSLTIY
Data set [15] has as its target Protein kinase C beta type (Homo sapiens) (UniProt P05771). The experiment in a line: Inhibition of recombinant human PKCbeta1 (2 to end residues) assessed as residual activity at 10 uM using histone H1 as substrate measured after 40 mins in presence of [gamma33P]ATP by scintillation counting method.
Data set [16] concerns the target Serine/threonine-protein kinase PAK 4 (Homo sapiens) (UniProt O96013). The experiment in a line: Inhibition of recombinant human PAK4 (295 to end residues) assessed as residual activity at 10 uM using myelin basic protein as substrate measured after 40 mins in presence of [gamma33P]ATP by scintillation counting method.
In data set [17] the target is Phosphatidylinositol 4-phosphate 3-kinase C2 domain-containing subunit alpha (Homo sapiens) (UniProt O00443). The experiment in a line: Inhibition of recombinant human PI3KC2alpha (299 to end residues) assessed as residual activity at 10 uM using phosphatidylinositol as substrate measured after 40 mins by HTRF assay.
For data set [18], the target named is Serine/threonine-protein kinase DCLK3 (Homo sapiens) (UniProt Q9C098). The experiment in a line: Inhibition of recombinant human DCAMKL3 (345 to end residues) assessed as residual activity at 10 uM using KKLNRTLSFAEPG as substrate measured after 40 mins in presence of [gamma33P]ATP by scintillation counting method.
Chain of Serine/threonine-protein kinase DCLK3 (Homo sapiens) (Q9C098 whole entry, the tested form may be a part): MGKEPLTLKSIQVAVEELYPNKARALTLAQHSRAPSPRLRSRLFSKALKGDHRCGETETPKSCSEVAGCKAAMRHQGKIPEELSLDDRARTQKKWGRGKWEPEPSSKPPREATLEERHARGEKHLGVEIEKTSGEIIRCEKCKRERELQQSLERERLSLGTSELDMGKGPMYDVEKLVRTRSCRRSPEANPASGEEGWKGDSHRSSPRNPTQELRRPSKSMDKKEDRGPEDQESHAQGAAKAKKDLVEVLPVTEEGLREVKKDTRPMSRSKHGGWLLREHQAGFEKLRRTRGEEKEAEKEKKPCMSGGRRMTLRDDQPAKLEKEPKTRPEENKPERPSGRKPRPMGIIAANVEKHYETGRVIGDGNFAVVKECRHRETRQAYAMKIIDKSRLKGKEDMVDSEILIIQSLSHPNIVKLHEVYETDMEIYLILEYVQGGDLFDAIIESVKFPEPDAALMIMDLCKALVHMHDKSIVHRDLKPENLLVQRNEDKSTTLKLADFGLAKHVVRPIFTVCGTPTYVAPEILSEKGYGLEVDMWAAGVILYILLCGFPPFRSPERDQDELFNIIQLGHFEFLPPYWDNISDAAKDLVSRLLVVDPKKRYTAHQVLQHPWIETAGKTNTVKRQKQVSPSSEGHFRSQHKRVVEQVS
The target of data set [19] is Death-associated protein kinase 1 (Homo sapiens) (UniProt P53355). The experiment in a line: Inhibition of recombinant human DAPK1 (1 to 296 residues) assessed as residual activity at 10 uM using KKLNRTLSFAEPG as substrate measured after 40 mins in presence of [gamma33P]ATP by scintillation counting method.
In a further data set the test system is HCT-116. The experiment in a line: Induction of apoptosis in human HCT116 cells assessed as viable cells at 25 nM measured after 48 hrs by Annexin V-FITC/propidium iodide staining-based flow cytometry (reference value: 94.5%). It is filed as functional. To be noted: HCT-116, 48 h, read-out: Activity.
The target in data set [20] is Protein kinase C delta type (Homo sapiens) (UniProt Q05655). The experiment in a line: Inhibition of recombinant human PKCdelta (2 to end residues) assessed as residual activity at 10 uM using ERMRPRKRQGSVRRRV as substrate measured after 40 mins in presence of [gamma33P]ATP by scintillation counting method.
The target of data set [21] is CDK4/Cyclin D3 (Homo sapiens) (UniProt P11802+P30281). The experiment in a line: Inhibition of recombinant full-length human CDK4/cyclinD3 assessed as residual activity at 10 uM using Rb fragment as substrate measured after 40 mins in presence of [gamma33P]ATP by scintillation counting method. It is filed as protein-complex assay.
The target in data set [22] is Insulin receptor (Homo sapiens) (UniProt P06213). The experiment in a line: Inhibition of recombinant human IR (1005 to 1310 residues) assessed as residual activity at 10 uM using KKSRGDYMTMQIG as substrate measured after 40 mins in presence of [gamma33P]ATP by scintillation counting method.

Chain of Protein kinase C beta type (Homo sapiens) (P05771 2-671 limits assumed): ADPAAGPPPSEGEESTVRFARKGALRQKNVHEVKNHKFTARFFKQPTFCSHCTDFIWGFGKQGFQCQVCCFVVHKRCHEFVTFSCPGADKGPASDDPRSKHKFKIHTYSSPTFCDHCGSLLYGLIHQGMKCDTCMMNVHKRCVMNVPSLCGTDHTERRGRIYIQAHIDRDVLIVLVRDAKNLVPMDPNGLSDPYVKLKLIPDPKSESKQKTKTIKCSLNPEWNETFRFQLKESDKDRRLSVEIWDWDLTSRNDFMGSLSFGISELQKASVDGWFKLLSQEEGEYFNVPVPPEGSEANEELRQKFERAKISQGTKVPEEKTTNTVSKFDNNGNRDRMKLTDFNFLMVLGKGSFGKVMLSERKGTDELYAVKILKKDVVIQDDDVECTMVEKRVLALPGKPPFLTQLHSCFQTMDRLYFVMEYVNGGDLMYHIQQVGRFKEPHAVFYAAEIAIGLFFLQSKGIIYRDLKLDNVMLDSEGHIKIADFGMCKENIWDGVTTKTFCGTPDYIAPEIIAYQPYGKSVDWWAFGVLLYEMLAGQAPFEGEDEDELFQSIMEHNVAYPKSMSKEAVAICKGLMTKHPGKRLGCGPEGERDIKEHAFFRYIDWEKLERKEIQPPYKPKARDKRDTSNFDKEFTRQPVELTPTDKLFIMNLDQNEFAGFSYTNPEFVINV
Chain of SNF-related serine/threonine-protein kinase (Homo sapiens), Q9NRH2 [UNDEFINED MUTATION] (Q9NRH2 whole entry, looked up, stated change not applied, the tested form may be a part): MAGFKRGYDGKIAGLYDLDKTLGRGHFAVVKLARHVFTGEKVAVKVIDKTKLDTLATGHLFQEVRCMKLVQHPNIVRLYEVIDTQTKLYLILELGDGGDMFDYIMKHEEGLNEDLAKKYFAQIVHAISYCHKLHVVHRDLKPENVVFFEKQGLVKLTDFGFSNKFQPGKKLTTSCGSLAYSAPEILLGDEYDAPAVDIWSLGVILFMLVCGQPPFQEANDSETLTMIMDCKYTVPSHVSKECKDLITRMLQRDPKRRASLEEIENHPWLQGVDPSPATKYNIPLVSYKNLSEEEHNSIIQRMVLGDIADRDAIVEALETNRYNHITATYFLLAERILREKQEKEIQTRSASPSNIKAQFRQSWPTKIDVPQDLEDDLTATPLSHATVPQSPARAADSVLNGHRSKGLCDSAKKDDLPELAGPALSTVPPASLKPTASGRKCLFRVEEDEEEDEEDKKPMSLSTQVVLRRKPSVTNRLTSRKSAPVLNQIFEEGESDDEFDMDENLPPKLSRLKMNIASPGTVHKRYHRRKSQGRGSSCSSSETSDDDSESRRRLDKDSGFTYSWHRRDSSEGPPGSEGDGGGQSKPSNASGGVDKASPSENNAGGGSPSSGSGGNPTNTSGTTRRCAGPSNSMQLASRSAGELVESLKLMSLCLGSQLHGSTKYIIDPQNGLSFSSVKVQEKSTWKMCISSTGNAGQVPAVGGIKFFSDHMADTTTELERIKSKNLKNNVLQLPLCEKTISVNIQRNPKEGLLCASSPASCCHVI

A word on the IC50: it is the concentration at which inhibition is half-maximal. Turning to `Cc1cc(C)c(CNc2nc(Cl)nc3c2ncn3C2CCCC2)c(=O)[nH]1`, the Activity was 3.55% in the data set with SW-620 [1]; 136% in data set [2]; 104% in [3]; 106% in data set [4]; “Non-Toxic” in data set [5]; 104% in data set [6]. The Activity is 2.71% in the data set with SW-620 [7]; 111% in data set [8]; 100% in data set [9]; 98.5% in data set [10]; 104% in data set [11]; 106% in data set [12]. In addition, the Activity in [13] was determined as 114%; in data set [14], 84.5%; in [15] it was 96%; in data set [16] it was 106%; in [17], 112%; in [18], 110%. For the same molecule, the Activity worked out at 114% in data set [19], 111% in data set [20], 91% in data set [21] and 116% in [22]. In the data set with HT-29, the IC50 was determined as 71 nM. Further, the viability at 0.025 µM with HCT-116 is 95.9%.
